Source: patent US10195179B2, “Spiro-lactam NMDA receptor modulators and uses thereof” (Aptinyx Inc., priority 2016, dated 2019)

Experiments:
[1] = molecular target: NR2A (Homo sapiens, UniProt Q12879); assay: Potentiation of [3H]MK-801 binding, wild-type NMDAR2A; parameters: species or system rat
[2] = Plasma stability, rat; assay type: in vitro ADME
Description: (§1) Plasma stability for Compound AA and Compound BB was investigated. The following table indicates the percent of Compound AA and Compound BB remaining after 60 minutes.

[3] = system: Sprague Dawley rats; assay: Porsolt forced swim test; assay type: in vivo, rat; settings: 1-100 μg/kg PO, 1 h post-dosing
Description: A non-clinical in vivo pharmacology study (Porsolt assay) was performed to measure antidepressant-like effects. A negative control (0.5% sodium carboxymethyl cellulose in 0.9% sterile saline vehicle) and a positive control (Compound C) were used to compare against Compound BB. The study allowed for the construction of a dose-response curve of the effects of each compound on the Porsolt forced swim test as assessed by the rats' response (reduced floating time) during a 5-minute swimming test.
Male 2-3 month old Sprague Dawley rats were used (Harlan, Indianapolis, Ind.). Rats were housed in Lucite cages with aspen wood chip bedding, maintained on a 12:12 light:dark cycle (lights on at 5 AM), and given ad libitum access to Purina lab chow (USA) and tap water throughout the study.
The Porsolt forced swim test adapted for use in rats was performed as described by Burgdorf et al., (The long-lasting antidepressant effects of rapastinel (GLYX-13) are associated with a metaplasticity process in the medial prefrontal cortex and hippocampus. Neuroscience 308:202-211, 2015). Animals were placed in a 46 cm tall×20 cm in diameter clear glass tube filled to 30 cm with tap water (23±1° C.) for 15 min on the first day (habituation) and 5 min on the subsequent test day. Animals were tested 1 h post-dosing with the compound BB, positive control (Compound C, 10 μg/kg), or vehicle (0.5% sodium carboxymethyl cellulose (Na-CMC) in 0.9% sterile saline). Water was changed after every other animal. Animals were videotaped, and floating time as defined as the minimal amount of effort required to keep the animals head above water was scored offline by a blinded experimenter with high inter-rater reliability (Pearson's r >0.9).
The maximally efficacious dose was defined as the lowest dose that was statistically different from vehicle but statistically equivalent (per Fisher's PLSD) to the higher doses. […]
Compound AA was assessed in a second set of animals at a single dose at 1 h post-administration and in a third set of animals at 24 h post-administration (FIG. 9B). […]

[4] = Plasma protein binding assay, rat; assay type: in vitro ADME; settings: read-out: Plasma Protein binding (% Bound) Plasma rat (converted)
Description: (§2) Bound drug concentration in the brain was also investigated, and plasma protein binding assays were conducted. The following table (% bound) indicates results for Compound AA and Compound BB.

[5] = Plasma protein binding assay, human; assay type: in vitro ADME; settings: read-out: Plasma Protein binding (% Bound) Plasma human (converted)
Description: as §2

[6] = system: Sprague Dawley rats; assay: Blast-induced traumatic brain injury/cognitive deficits measured by PEL; assay type: in vivo, rat; settings: 10 mg/kg PO 1 h post-blast, PEL 48 hours post-blast
Text: Single blast-induced traumatic brain injury/cognitive deficits were induced, modified for use in rats according to the protocol of Goldstein et al., “Chronic traumatic encephalopathy in blast-exposed military veterans and a blast neurotrauma mouse model,” Science Translational Medicine, Vol. 4, Issue 134, pp. 134ra60, 2012. Male 2-3 month old Sprague Dawley rats were used. Rats were housed in Lucite cages with aspen wood chip bedding, maintained on a 12:12 light:dark cycle (lights on at 5 AM), and given ad libitum access to Purina lab chow (USA) and tap water throughout the study. Rats were first anesthetized using 3.5-4% isoflurane, then the ears were protected with 1.5×1.5 mm foam plugs (Pura-Fit®, Moldex-Metric Inc., Culver City, Calif.), and the rat was placed into a head access rodent thoracic restrainer (Stoelting, USA) to protect the body while allowing the head to move freely. […]
PEL (Positive emotional learning) was conducted 48 hours post-blast. […] High frequency ultrasonic vocalizations (USVs) were recorded and analyzed by sonogram with Avasoft SASlab Pro (Germany) as previously described by Burgdorf et al., “Positive emotional learning is regulated in the medial prefrontal cortex by GluN2B-containing NMDA receptors,” Neuroscience, 192:515-523, 2011. Frequency modulated 50-kHz USVs that occurred during each the no-stimulation periods were quantified to measure PEL. […]

[7] = Plasma stability, human; assay type: in vitro ADME
Description: as §1

NR2A, sequence (Q12879 23-1464, species assumed, other chains not shown): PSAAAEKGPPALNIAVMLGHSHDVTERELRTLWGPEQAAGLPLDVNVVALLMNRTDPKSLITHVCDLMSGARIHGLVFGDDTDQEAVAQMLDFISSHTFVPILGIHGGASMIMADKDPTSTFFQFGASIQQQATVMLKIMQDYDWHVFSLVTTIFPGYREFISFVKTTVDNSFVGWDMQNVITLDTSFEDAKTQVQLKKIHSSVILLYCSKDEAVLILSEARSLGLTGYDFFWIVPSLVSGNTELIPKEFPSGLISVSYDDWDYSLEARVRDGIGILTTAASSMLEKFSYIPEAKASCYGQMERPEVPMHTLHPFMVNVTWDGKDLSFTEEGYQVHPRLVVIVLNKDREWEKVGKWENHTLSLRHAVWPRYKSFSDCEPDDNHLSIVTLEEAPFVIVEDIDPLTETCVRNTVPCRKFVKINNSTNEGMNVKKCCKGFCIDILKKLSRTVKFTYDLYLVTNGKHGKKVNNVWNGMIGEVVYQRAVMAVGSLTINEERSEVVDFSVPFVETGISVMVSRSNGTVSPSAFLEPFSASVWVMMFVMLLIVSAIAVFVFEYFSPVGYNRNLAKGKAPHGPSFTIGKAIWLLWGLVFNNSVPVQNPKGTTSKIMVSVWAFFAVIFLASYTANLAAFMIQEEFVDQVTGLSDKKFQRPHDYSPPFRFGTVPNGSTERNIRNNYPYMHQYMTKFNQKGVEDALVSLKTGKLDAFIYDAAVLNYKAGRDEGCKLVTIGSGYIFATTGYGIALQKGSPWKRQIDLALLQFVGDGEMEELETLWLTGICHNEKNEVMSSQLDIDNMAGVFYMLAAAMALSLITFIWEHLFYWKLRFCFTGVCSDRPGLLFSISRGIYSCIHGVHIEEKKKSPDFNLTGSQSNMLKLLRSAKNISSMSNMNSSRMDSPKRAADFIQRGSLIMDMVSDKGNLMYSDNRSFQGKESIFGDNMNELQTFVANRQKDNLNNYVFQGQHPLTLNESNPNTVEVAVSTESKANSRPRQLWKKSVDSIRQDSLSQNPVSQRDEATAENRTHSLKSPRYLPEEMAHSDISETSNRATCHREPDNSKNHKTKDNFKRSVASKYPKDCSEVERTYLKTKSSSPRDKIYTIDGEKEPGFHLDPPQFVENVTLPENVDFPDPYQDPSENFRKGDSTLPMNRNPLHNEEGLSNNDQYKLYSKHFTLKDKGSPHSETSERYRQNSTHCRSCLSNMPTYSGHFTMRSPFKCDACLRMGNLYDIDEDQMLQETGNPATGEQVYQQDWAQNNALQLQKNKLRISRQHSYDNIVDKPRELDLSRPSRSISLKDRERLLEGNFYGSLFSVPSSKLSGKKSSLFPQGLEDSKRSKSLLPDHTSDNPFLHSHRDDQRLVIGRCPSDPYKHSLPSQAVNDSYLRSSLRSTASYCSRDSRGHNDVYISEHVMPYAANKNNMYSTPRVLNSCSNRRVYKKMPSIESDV

NR2A A (%) (activity) ([1]; potentiation of [3H]MK-801 binding): 0% | NMDAR2A BINDING PROFILE % 1 mM Glycine ([1]; relative to 1 mM glycine): 0% | binding to NR2A (in words) ([1]; statement in description): substantially no binding | NMDAR2A BINDING PROFILE Conclusion ([1]; wild-type NMDAR2A): WT2A no | Plasma Stability (% remaining at 60 min) Rat [2]: 86% | fraction unbound [4]: 0.65 | fraction unbound [5]: 0.789 | Plasma Stability (% remaining at 60 min) Human [7]: 81%
SMILES: C[C@@H](O)[C@@H](C(N)=O)N1C[C@@]2(CCCN2S(C)(=O)=O)C1=O [Compound BB, (2S,3R)-3-hydroxy-2-((S)-5-(methylsulfonyl)-1-oxo-2,5-diazaspiro[3,4]octan-2-yl)butanamide]
floating time in the Porsolt test [3]: produces an antidepressant-like effect as measured by decreased floating time | blast-induced cognitive deficits as measured by PEL [6]: reversed blast-induced cognitive deficits
